From patent publication US9561231B2 (AbbVie Inc., priority 2012, dated 2017)
Read-outs that look alike come from different tables or passages of the source.

Key:
[1] = biological target: T1, first (BD1: amino acids K57-E168) bromodomain of BRD4 (Homo sapiens, UniProt O60885); assay: TR-FRET bromodomain binding assay, BRD4 BD1; settings: Ki calculated from IC50, probe Kd and probe concentration, read-out: TR-FRET Binding Ki: BRD4 (BDI_K57-E168)
T1 construct: His-tagged first (BD1: amino acids K57-E168)
Outline: (§1)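 Displacement of an Alexa647-labelled BET-inhibitor from His-tagged BD1 (K57-E168) or BD2 ([…]) measured by TR-FRET in pH 6.0 sodium phosphate buffer with NaCl, EDTA, Triton X-100 and DTT.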

[2] = biological target: T2, second (BD2: amino acids E352-E168) bromodomain of BRD4 (Homo sapiens, UniProt O60885); assay: TR-FRET bromodomain binding assay, BRD4 BD2; settings: Ki calculated from IC50, probe Kd and probe concentration, read-out: TR-FRET Binding Ki: BRD4 (BDII_E352-M457)
T2 construct: protocol
Outline: as §1

[3] = TR-FRET assay protocol (A-G, compound concentration range)
[4] = TR-FRET assay protocol (D, E or G) per compound

SMILES | Ki [1, 3] [µM] | Ki [2, 3] [µM] | Ki [1, 4] [µM] | Ki [2, 4] [µM]
CCS(=O)(=O)c1ccc(Oc2ccc(F)cc2F)c(-c2cn(C)c(=O)cc2Oc2ccc(F)cc2F)c1 [Example 317, 4-(2,4-difluorophenoxy)-5-[2-(2,4-difluorophenoxy)-5-(ethylsulfonyl)phenyl]-1-methylpyridin-2(1H)-one] | 0.377 | 0.182 | – | –
CCOc1cc(=O)n(C)cc1-c1cc(NS(=O)(=O)c2ccc(C(C)(C)C)cc2)ccc1Oc1ccc(F)cc1F [Example 416, 4-tert-butyl-N-[4-(2,4-difluorophenoxy)-3-(4-ethoxy-1-methyl-6-oxo-1,6-dihydropyridin-3-yl)phenyl]benzenesulfonamide] | – | – | 0.493 | 0.281
Cn1nc(-c2ccccc2Oc2ccccc2)c(-c2cnn(CCN3CCOCC3)c2)cc1=O [Example 172, 2-methyl-5-{1-[2-(morpholin-4-yl)ethyl]-1H-pyrazol-4-yl}-6-(2-phenoxyphenyl)pyridazin-3(2H)-one] | 0.572 | 0.593 | – | –
Cc1ccc(-c2cc(=O)n(C)nc2-c2ccccc2Oc2ccccc2)cc1N [Example 64, 5-(3-amino-4-methylphenyl)-2-methyl-6-(2-phenoxyphenyl)pyridazin-3(2H)-one] | 0.448 | 0.507 | – | –
CCOc1cc(=O)n(C)cc1-c1cc(NS(=O)(=O)c2ccc(Cl)cc2Cl)ccc1Oc1ccc(F)cc1F [Example 417, 2,4-dichloro-N-[4-(2,4-difluorophenoxy)-3-(4-ethoxy-1-methyl-6-oxo-1,6-dihydropyridin-3-yl)phenyl]benzenesulfonamide] | – | – | 0.259 | 0.0571
COc1ccc(-c2cc(=O)n(C)nc2-c2ccccc2Oc2ccccc2)c(OC)n1 [Example 125, 5-(2,6-dimethoxypyridin-3-yl)-2-methyl-6-(2-phenoxyphenyl)pyridazin-3(2H)-one] | > 13 | 16 | – | –
CC(=O)N1CCC(c2cc(=O)n(C)nc2-c2ccccc2Oc2ccccc2)CC1 [Example 89, 5-(1-acetylpiperidin-4-yl)-2-methyl-6-(2-phenoxyphenyl)pyridazin-3(2H)-one] | 8.1 | 3.89 | – | –
COC(=O)c1ccccc1-c1cc(=O)n(C)nc1-c1ccccc1Oc1ccccc1 [Example 126, methyl 2-[1-methyl-6-oxo-3-(2-phenoxyphenyl)-1,6-dihydropyridazin-4-yl]benzoate] | 9.34 | > 22.2 | – | –
CC(C)COc1cccc(-c2cc(=O)n(C)nc2-c2ccccc2Oc2ccccc2)c1 [Example 110, 2-methyl-5-[3-(2-methylpropoxy)phenyl]-6-(2-phenoxyphenyl)pyridazin-3(2H)-one] | > 13 | 13.5 | – | –
CCOC(=O)N1CCC(Oc2ccc(NS(=O)(=O)CC)cc2-c2cn(C)c(=O)cc2OCC)CC1 [Example 388, ethyl 4-{2-(4-ethoxy-1-methyl-6-oxo-1,6-dihydropyridin-3-yl)-4-[(ethylsulfonyl)amino]phenoxy}piperidine-1-carboxylate] | – | – | 0.766 | 1.42
COc1ccc(-c2cc(=O)n(C)nc2-c2ccccc2Oc2ccccc2)cc1F [Example 203, 5-(3-fluoro-4-methoxyphenyl)-2-methyl-6-(2-phenoxyphenyl)pyridazin-3(2H)-one] | 3.51 | 1.52 | – | –
Cn1nc(-c2ccccc2Oc2ccc(C(F)(F)F)cc2)ccc1=O [Example 7, 2-methyl-6-{2-[4-(trifluoromethyl)phenoxy]phenyl}pyridazin-3(2H)-one] | 1.97 | 10.4 | – | –
CCNC(=O)c1ccc(-c2cc(=O)n(C)nc2-c2ccccc2Oc2ccccc2)cc1 [Example 202, N-ethyl-4-[1-methyl-6-oxo-3-(2-phenoxyphenyl)-1,6-dihydropyridazin-4-yl]-benzamide] | 0.227 | 0.251 | – | –
Cc1ccc(-c2cc(=O)n(C)nc2-c2ccccc2Oc2ccccc2)cn1 [Example 196, 2-methyl-5-(6-methylpyridin-3-yl)-6-(2-phenoxyphenyl)pyridazin-3(2H)-one] | 1.08 | 0.67 | – | –
Cn1nc(-c2ccccc2Oc2ccccc2)c(-c2cccc(C(=O)N3CCCCC3)c2)cc1=O [Example 157, 2-methyl-6-(2-phenoxyphenyl)-5-[3-(piperidin-1-ylcarbonyl)phenyl]pyridazin-3(2H)-one] | 5.51 | 4.75 | – | –
CCOc1cccc(-c2cc(=O)n(C)nc2-c2ccccc2Oc2ccccc2)c1F [Example 136, 5-(3-ethoxy-2-fluorophenyl)-2-methyl-6-(2-phenoxyphenyl)pyridazin-3(2H)-one] | 4.33 | 6.7 | – | –
CCN(CC)C(=O)c1cc(F)cc(-c2cc(=O)n(C)nc2-c2ccccc2Oc2ccccc2)c1 [Example 167, N,N-diethyl-3-fluoro-5-[1-methyl-6-oxo-3-(2-phenoxyphenyl)-1,6-dihydropyridazin-4-yl]benzamide] | 5.43 | 7.37 | – | –
Cn1nc(-c2ccccc2Oc2ccccc2)c(-c2ccncc2)cc1=O [Example 104, 2-methyl-6-(2-phenoxyphenyl)-5-(pyridin-4-yl)pyridazin-3(2H)-one] | 1.6 | 0.562 | – | –
Cn1nc(-c2ccccc2Oc2ccccc2)c(C2CCN(C(=O)OC(C)(C)C)CC2)cc1=O [Example 86, tert-butyl 4-[1-methyl-6-oxo-3-(2-phenoxyphenyl)-1,6-dihydropyridazin-4-yl]piperidine-1-carboxylate] | > 13 | 2.74 | – | –
CN1CC=C(c2cc(=O)n(C)nc2-c2ccccc2Oc2ccccc2)CC1 [Example 83, 2-methyl-5-(1-methyl-1,2,3,6-tetrahydropyridin-4-yl)-6-(2-phenoxyphenyl)pyridazin-3(2H)-one] | 3.61 | 6.83 | – | –
CN1CCN(c2cc(=O)n(C)nc2-c2ccccc2Oc2ccccc2)CC1=O [Example 51, 2-methyl-5-(4-methyl-3-oxopiperazin-1-yl)-6-(2-phenoxyphenyl)pyridazin-3(2H)-one] | 11.6 | 6.6 | – | –
CN1CCN(c2ncc(-c3cc(=O)n(C)nc3-c3ccccc3Oc3ccccc3)cn2)CC1 [Example 188, 2-methyl-5-[2-(4-methylpiperazin-1-yl)pyrimidin-5-yl]-6-(2-phenoxyphenyl)pyridazin-3(2H)-one] | 0.67 | 1.13 | – | –
Cn1nc(-c2ccccc2Oc2ccccc2)c(-c2cncc(C(=O)NC3CC3)c2)cc1=O [Example 144, N-cyclopropyl-5-[1-methyl-6-oxo-3-(2-phenoxyphenyl)-1,6-dihydropyridazin-4-yl]pyridine-3-carboxamide] | > 2.38 | > 3.37 | – | –
CC(=O)c1cccc(-c2cc(=O)n(C)nc2-c2ccccc2Oc2ccccc2)c1F [Example 124, 5-(3-acetyl-2-fluorophenyl)-2-methyl-6-(2-phenoxyphenyl)pyridazin-3(2H)-one] | 8.12 | 17.7 | – | –
Cc1ccc(-c2cc(=O)n(C)nc2-c2ccccc2Oc2ccccc2)o1 [Example 211, 2-methyl-5-(5-methylfuran-2-yl)-6-(2-phenoxyphenyl)pyridazin-3(2H)-one] | 2.15 | 1.52 | – | –
Cn1nc(-c2ccccc2Oc2ccccc2)c(-c2ccc(C(O)C3CCCC3)cc2)cc1=O (stereo not shown) [Example 74, 5-{4-[cyclopentyl(hydroxy)methyl]phenyl}-2-methyl-6-(2-phenoxyphenyl)pyridazin-3(2H)-one] | 0.632 | 1.05 | – | –
